Literature values in patent US10772852B2, “Compositions and methods for combination pharmacological treatments to induce a prolonged, mild decrease in core body temperature” (priority 2015, dated 2020).

Assays:
[1] = Boyle et al. 2013
[2] = tested on: women with ovarian cancer; settings: on average, Kumar et al. (2013)
mice = settings: Reilly et al. 2013

| SMILES | reduction in the risk of cardiovascular events ([1]; 29 different studies) [%] | reduction in the risk of MI ([1]; nine studies) [%] | reduction in the risk of heart failure ([1]; seven studies) [%] | likelihood to survive for 5 years after diagnosis versus women not taking the drug [2] | effect on obesity, diabetes, and fatty liver (mice) |
| --- | --- | --- | --- | --- | --- |
| CN(C)C(=N)N=C(N)N [metformin] | 10 | 12 | 10 | nearly four times more likely to survive for 5 years | – |
| CC(C)c1ccc2oc3nc(N)c(C(=O)O)cc3c(=O)c2c1 [amlexanox] | – | – | – | – | reverse obesity, diabetes, and fatty liver in mice |
